In EP3866826B1, “ANTIMICROBIAL PEPTIDES AND METHODS OF USING THE SAME” (priority 2018, dated 2020):
Where no end group is shown, it is not given here.

What was measured:
[1] = test system: gram-negative bacteria; A. baumannii and P. aeruginosa; gram-positive bacteria, S. aureus and MRSA and fungal strains; C. albicans, C. parapsilosis, C. krusei …; assay: Antimicrobial activity against multiple clinical isolates of bacteria and fungal strains; format: cell-based
Experimental: Thirty-four AMPs were synthesized and evaluated in three iterative rounds. Each AMP was evaluated for antimicrobial potency against 11 strains of bacteria, 7 strains of fungi and their cytotoxicity determined using L929 fibroblasts and human keratinocytes. The AMPs were evaluated for biofilm eradication and ability to induce antimicrobial resistance.

P. aeruginosa 27853 = assay: Resistance development by serial passage at sub-inhibitory concentrations, 30 passages (FIG. 4); format: cell-based
Experimental: (§1) FIG. 4A to 4B. […] Sub-inhibitory concentrations of RP557, gentamicin and clindamycin were incubated with P. aeruginosa 27853 and S. aureus 29213 for 24 hours. Bacteria showing growth in the highest concentration were re-passaged in fresh dilutions containing sub-minimum inhibitory concentration (MIC) levels of each component for 30 consecutive passages; means are shown.

S. aureus 29213 = assay: as above; format: cell-based
Experimental: as §1

L929 fibroblast cells = assay: Cytotoxicity to mammalian cells, cell viability (FIG. 3C); format: cell-based
Experimental: The rapid destruction of pathogenic cells by potent broad-spectrum topical anti-infectives infer a theoretical reduced likelihood of developing bacterial resistance. […] Cell viability was performed using bioluminescent strains of P. aeruginosa 19660 (FIG. 3A), S. aureus 49525 (FIG. 3B) & L929 fibroblast cells (FIG. 3C) and imaged with the IVIS Lumina system. Data represents the mean of 3 measurements.

[2] = test system: S. aureus, P. aeruginosa and Fuscobacterium ssp.; assay: Pharmacodynamic response in biofilm associated wounds, CFU counts of punch biopsies (FIG. 7); format: in vivo; conditions: 2% RP557 applied 24 hours post inoculation; biopsies at 30 min, 180 min and 24 hours post treatment
Experimental: (§2) From the in vitro screening assays three AMPs were selected for further evaluation in a qualified porcine burn wound model infected with P. aeruginosa and S. aureus. Full thickness wounds were created with heated brass rod and 2cm trephine: approximately 10 minutes after homeostasis, wounds were infected with a 2:2:1 mixture of S. aureus, P. aeruginosa and Fuscobacterium ssp. Treatment of infected wounds began 24 hours post infection to allow for biofilm formation.
FIG. 7A-7B Pharmacodynamic Response to RP557. Twenty four hours post bacterial inoculation biofilm associated wounds were treated with 2% RP557. Punch biopsies were taken at 30 min, 180 min and 24 hours post treatment, homogenized, plated and CFUs counted. Statistical significance was calculated using the Holm-Sidak method. *p<0.05, ***p<0.001, ****p<0.0001, dAMP vs Control.

Candida 17-88 biofilm = assay: Inhibition of preformed biofilm, metabolic evaluation using XTT (FIG. 5); format: cell-based, Candida albicans; conditions: added to preformed Candida 17-88 biofilm for 24 hours
Experimental: Fluconazole or RP557 were added to preformed Candida 17-88 biofilm for 24 hours and biofilm inhibition evaluated via metabolic evaluation using XTT, 2,3-bis (2-methoxy-4-nitro-5-sulfophenyl) [phenyl-amino)carbonyl]-2H. Data represent the mean±SD of triplicate measurements and statistical significance, compared to vehicle control, determined by one-way ANOVA followed by Dunnett's test (*p < 0.05, **p < 0.01, and ***p < 0.001).

[3] = Physiochemical properties of RP557 (hydrophilicity, solubility, pH stability); format: physicochemical; conditions: extremes of pH (<4)
Experimental: (§3) Exemplary AMP RP557 was prepared in one gram lots at 98% purity or better. […] Furthermore, advances in solid and solution phase peptide chemistry has enabled Good Manufacturing Practice (GMP) material to be produced rapidly, economically in high yield and purity.

[4] = Stability in serum, monitored via LC-MS/MS; format: in vitro ADME; conditions: human serum for 72 hrs at 37°C monitored via LC-MS/MS
Experimental: as §3

S. aureus ATCC 6538 = assay: Polymicrobial infected full-thickness thermal porcine burn model, bacterial counts (FIG. 6B); format: in vivo; conditions: pig, single topical application, sampled after 24 hours
Experimental: as §2
(§4) Full thickness wounds were created with a heated brass rod and a trephine on the back of anesthetized pigs followed by infection with 2:2:1 mixture of S. aureus ATCC 6538 (FIG. 6B) and P. aeruginosa (porcine isolate) (FIG. 6A) and fusobacterium ssp. After 3 hours, 0, 0.1, 0.2, 1 or 2% RP557 were applied. After 24 hours, wounds were sampled by punch biopsy and bacterial counts, expressed as log (Colony Forming Units, CFUs/g) evaluated. Data is expressed as mean±SE of 8 replicates. Statistical significance, compared to vehicle, determined by one-way ANOVA followed by Dunnett's test (**p < 0.01, ****p < 0.0001).

[5] = test system: P. aeruginosa (porcine isolate); assay: Polymicrobial infected full-thickness thermal porcine burn model, bacterial counts (FIG. 6A); format: in vivo; conditions: pig, single dose, 2% RP557 (p<0.0001), sampled after 24 hours
Experimental: as §2, §4

C. albicans (ATCC 44858) = assay: Vaginal infection rodent model of vulvovaginal candidiasis, fungal counts (FIG. 8); format: in vivo; conditions: rats, 20 mg/mL IVG at 0.1 mL/rat twice daily for 3 days from 48 hr after infection, CFUs on Day 5 (p < 0.0001)
Experimental: FIG. 8A to 8B. RP557 topical treatment reduces rodent vaginal candidiasis. Effects of RP557, miconazole and oral fluconazole in the C. albicans (ATCC 44858) vaginal infection rodent model. On Day 0, rats were inoculated intravaginally (IVG) with C. albicans at 1.46 x 10^7 CFU/rat. RP557 and miconazole at 20 mg/mL were administered IVG at 0.1 mL/rat twice daily at 8 hr intervals starting from 48 hr after infection for 3 days. CFUs were evaluated on Day 5 with limit of detection (LOD) 0.7 CFU/rat. Significant difference, compared to vehicle, determined by one-way ANOVA followed by Dunnett's test (*p < 0.05, ****p < 0.0001). A separate group receiving oral fluconazole; *p < 0.05 versus 0.1 and 10 mg/kg fluconazole.

Sequence: RFCWKVCYKGICFKKCK (disulfide (positions not given here)) [RP557, 17 amino acids, hairpin structure formed by two disulfide bonds]
- antimicrobial activity [1]: broad-spectrum antimicrobial activity
- susceptibility of the resistant strain at the end of 30 serial passages (cross resistance) (P. aeruginosa 27853; gentamicin-resistant P. aeruginosa): readily susceptible
- development of resistance (P. aeruginosa 27853; sub-inhibitory concentrations, 30 consecutive passages, P. aeruginosa 27853): did not develop resistance
- susceptibility of the resistant strain at the end of 30 serial passages (cross resistance) (S. aureus 29213; clindamycin-resistant S. aureus): readily susceptible
- development of resistance (S. aureus 29213; sub-inhibitory concentrations, 30 consecutive passages, S. aureus 29213): did not develop resistance
- cytotoxicity to mammalian cells (L929 fibroblast cells): not cytotoxic
- pharmacodynamic response, CFUs in wounds [2]: Kills Infection Throughout a 24 Hour Period
- biofilm inhibition (Candida 17-88 biofilm): potent inhibitor
- stability at extremes of pH [3]: stable
- stability in serum [4]: stable in serum
- S. aureus CFU counts (S. aureus ATCC 6538; 0.2% RP557 (p < 0.01)): 2.11±1.75 log CFU/g tissue
- S. aureus CFU counts (S. aureus ATCC 6538; 1% RP557 (p < 0.0001)): 1.46±2.05 log CFU/g tissue
- number of viable P. aeruginosa bacteria [5]: 1.96±1.64 log CFU/g tissue
- fungal counts relative to the vehicle control group (C. albicans (ATCC 44858)): significant reductions
